A word on the EC50: it is the concentration that produces a half-maximal response.

The values that follow come from BindingDB's records for doi:10.1021/jm1005989 (Pfizer, 2010).

The target in this test is Beta-2 adrenergic receptor (Homo sapiens, UniProt P07550). In words: Agonist activity at human recombinant beta2 adrenergic receptor expressed in CHO cells assessed as elevation in cAMP level after 1 hr by flashplate method. On the technique in general: cAMP levels reflect the balance of adenylyl cyclase and phosphodiesterase activity.
Sequence of Beta-2 adrenergic receptor (P07550 whole entry): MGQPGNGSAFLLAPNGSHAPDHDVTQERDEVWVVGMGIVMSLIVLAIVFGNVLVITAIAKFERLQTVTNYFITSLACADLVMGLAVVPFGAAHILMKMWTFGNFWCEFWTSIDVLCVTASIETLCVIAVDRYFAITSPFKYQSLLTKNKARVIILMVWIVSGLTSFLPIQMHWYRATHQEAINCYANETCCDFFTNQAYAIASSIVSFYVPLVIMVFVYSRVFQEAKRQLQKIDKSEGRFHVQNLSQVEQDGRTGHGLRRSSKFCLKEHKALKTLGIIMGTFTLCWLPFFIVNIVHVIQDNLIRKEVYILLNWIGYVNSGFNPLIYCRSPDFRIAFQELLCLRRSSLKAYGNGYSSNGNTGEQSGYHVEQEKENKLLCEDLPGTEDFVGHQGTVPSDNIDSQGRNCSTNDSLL

In the case of `CC(C)(Cc1cccc(CC(=O)NCc2ccc(Cl)c(Cl)c2)c1)NC[C@H](O)c1ccc(O)c(NS(C)(=O)=O)c1` [(R)-N-(3,4-dichlorobenzyl)-2-(3-(2-(2-hydroxy-2-(4-hydroxy-3-(methylsulfonamido)phenyl)ethylamino)-2-methylpropyl)phenyl)acetamide], the EC50 was determined as 0.07 nM.
